Test results taken from US20220218641A1 (Concert Pharmaceuticals, Inc., priority 2019, published 2022).

Tests used:
[1] = Nephrotoxicity of Compound 100 and non-deuterated D-serine at 150 mg/kg PO (Example 3); format: in vivo, male Sprague-Dawley Rats
Source text: (§1) The pharmacokinetic profile of Compound 100 was investigated in male Sprague-Dawley rats compared with that of non-deuterated D-serine. […] Plasma was collected and analyzed for Compound 100 and non-deuterated D-Serine. Additional blood was collected and analyzed for the full clinical chemistry profile.

[2] = biological target: T1, human NMDAR subunits GluN1 and GluN2A (Homo sapiens, UniProt Q05586); assay: Automated patch clamp (ScreenPatch) NMDA receptor activation in HEK293 cells; format: cell-based; conditions: 0.003 to 10 μM
T1 construct: expressed in transfected cells; host or cells: HEK293
Protocol: Peak current and steady state current were measured. The activity at the NMDA receptor was indistinguishable for the two compounds.

[3] = Pharmacokinetic profile of Compound 100 vs non-deuterated D-serine, single 150 mg/kg PO dose (Example 3); format: in vivo, male Sprague-Dawley rats
Source text: as §1

[4] = Nephrotoxicity comparison, dose escalation 150 mg/kg to 750 mg/kg PO (Example 3, FIGS. 7-10); format: in vivo, rats; conditions: for BUN / Creatinine: PO doses from 150 mg/kg to 750 mg/kg
[5] = Pharmacokinetics of deuterated and non-deuterated D-serine, PO 10 mg/kg (Example 5); format: in vivo, male Sprague Dawley rats
Protocol: Three rats were used for each group. Blood was collected at the following time points: for IV dosing: pre-dose, 0.05, 0.167, 0.5, 1, 2, 4, 6, 8 and 12 hours post-dose; for PO dosing: pre-dose, 0.25, 0.5, 1, 2, 4, 6, 8 and 12 hours post-dose PO. Urine was collected at pre-dose (minimum 12 hours), 0-6, 6-12 and 12-24 hours. Plasma samples were analyzed and quantified for dosed compound LC-MS/MS.

[6] = Nephrotoxicity of non-deuterated D-serine at 300 mg/kg PO: clinical chemistry and urine (Example 2); format: in vivo, Male Sprague-Dawley Rats
Protocol: The hippocampus, cortex and plasma were collected and analyzed. Additional blood was collected and were analyzed for the full clinical chemistry profile. Urine was also collected and examined for glucose and total protein. […] The mean plasma, hippocampus, and cortex concentration at 1 hour are 19200 ng/mL, 674 ng/g, and 754 ng/g; respectively. The mean plasma, hippocampus, and cortex concentrations at 8 hours were 11250 ng/mL, 17725 ng/g, and 11875 ng/g, respectively. […] Blood urea nitrogen and creatinine levels were elevated.

[7] = Nephrotoxicity dose response of non-deuterated D-serine, 30-300 mg/kg PO (Example 4); format: in vivo, male Sprague-Dawley Rats; conditions: 24 hr samples at the 150 and 300 mg/kg doses, compared to control and reference values
Source text: (§2) The pharmacokinetic profile of non-deuterated D-serine was investigated in male Sprague-Dawley rats. […] Plasma was collected and analyzed for the non-deuterated D-serine. Additional blood was collected and analyzed for the full clinical chemistry profile.

[8] = Pharmacokinetics dose response of non-deuterated D-serine, 30-300 mg/kg PO (Example 4); format: in vivo, male Sprague-Dawley rats
Source text: as §2

[9] = dose escalation 150 mg/kg to 750 mg/kg
[10] = serum, D-serine at 24 hr, Compound 100 at 4, 8 and 24 hours

## [2H][C@@](N)(CO)C(=O)O [Compound 100, (2R)-2-amino-2-deutero-3-hydroxy-propanoic acid]
[1]
  Levels of biomarkers of nephrotoxicity: did not increase
[2]
  Activity at the NMDA receptor (peak current and steady state current): indistinguishable
[3]
  Cmax and AUCinf compared with non-deuterated D-serine: similar
[4]
  BUN: minimal changes
  Creatinine: minimal changes
[4]; [9]
  Exposure as measured by AUC and Cmax, compared with non-deuterated D-serine: greater
  Gross signs of nephrotoxicity: not
[5]
  Tmax compared with non-deuterated D-serine: similar

## N[C@H](CO)C(=O)O [Non-deuterated D-Serine, D-serine]
[6]
  Blood urea nitrogen level: elevated
  Creatinine level: elevated
  Glucose in urine: observed
[7]
  Creatine level: Elevated
  Gamma glutamyl transferase (GGT) level: Elevated
  Urea nitrogen level: Elevated
[1]
  Levels of biomarkers of nephrotoxicity: caused an increase
[1]; serum, D-serine at 8 hr and 24 hr, Compound 100 at 4, 8 and 24 hours
  Blood urea nitrogen (BUN) level: Elevated
[1]; [10]
  Creatinine level: Elevated
  Gamma glutamyl transferase (GGT) level: Elevated
[2]
  Activity at the NMDA receptor (peak current and steady state current): indistinguishable
[8]; 75 mg/kg PO (2.5× dose)
  AUCinf, multiple of the 30 mg/kg value: 2.9×
  Cmax, multiple of the 30 mg/kg value: 2.2×
[8]; 100 mg/kg PO (3.3× dose)
  AUCinf, multiple of the 30 mg/kg value: 4.9×
  Cmax, multiple of the 30 mg/kg value: 4.0×
[8]; 150 mg/kg PO (5× dose)
  AUCinf, multiple of the 30 mg/kg value: 6.9×
  Cmax, multiple of the 30 mg/kg value: 7.4×
[8]; 300 mg/kg PO (10× dose)
  AUCinf, multiple of the 30 mg/kg value: 18×
  Cmax, multiple of the 30 mg/kg value: 10.7×
[8]; plasma, 150 mg/kg PO
  Tmax: 18 min
[4]
  BUN: increasingly elevated levels
  Creatinine: increasingly elevated levels
[4]; [9]
  Gross signs of nephrotoxicity: observed
